Like-named read-outs stand apart in the source and are kept apart here.
Tests used:
[1] = system: Human breast cancer cell line T47D; assay: Cell based caspase-3 activity assay: potentiation of MMS induced apoptosis; conditions: read-out: EC50 (nM), potentiation of the apoptosis inducing activity of MMS
Outline: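 T47D cells were exposed for 24 h to compound plus a minimally apoptotic MMS dose (medium containing 11.1 μg/ml MMS). Lysates were incubated 3 h at 37 °C with (Ac-DEVD)2-R110 caspase-3 substrate (20 μM in added buffer) and read at ex 496/em 520 nm. EC50 came from a sigmoidal fit of RFU versus log concentration.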

advanced breast cancer = conditions: Phase II clinical trial; cited from earlier work
[2] = system: SW620 human colorectal cancer cells; assay: MTT based cell viability assay: potentiation of the growth inhibiting activity of MMS
[3] = system: BRCA-2 deficient CAPAN-1 human pancreatic cancer cells; assay: MTT based cell viability assay: growth inhibition of BRCA-2 deficient CAPAN-1 cells; conditions: 240 h, compound alone, 10 day assay
PARP-1 enzyme = biological target: T1, PARP-1 enzyme (Homo sapiens, UniProt P09874); assay: PARP-1 enzymatic activity assay (Trevigen 96-well kit 4676-096-K); format: biochemical; conditions: 0.5 unit PARP-1, histone pre-coated plate, 60 min at room temperature; read-out: IC50 (nM), inhibitory effect on PARP-1 enzymatic activity
T1 construct: purchased Trevigen, Inc. 4676-096-K
T1 sequence (P09874 whole entry): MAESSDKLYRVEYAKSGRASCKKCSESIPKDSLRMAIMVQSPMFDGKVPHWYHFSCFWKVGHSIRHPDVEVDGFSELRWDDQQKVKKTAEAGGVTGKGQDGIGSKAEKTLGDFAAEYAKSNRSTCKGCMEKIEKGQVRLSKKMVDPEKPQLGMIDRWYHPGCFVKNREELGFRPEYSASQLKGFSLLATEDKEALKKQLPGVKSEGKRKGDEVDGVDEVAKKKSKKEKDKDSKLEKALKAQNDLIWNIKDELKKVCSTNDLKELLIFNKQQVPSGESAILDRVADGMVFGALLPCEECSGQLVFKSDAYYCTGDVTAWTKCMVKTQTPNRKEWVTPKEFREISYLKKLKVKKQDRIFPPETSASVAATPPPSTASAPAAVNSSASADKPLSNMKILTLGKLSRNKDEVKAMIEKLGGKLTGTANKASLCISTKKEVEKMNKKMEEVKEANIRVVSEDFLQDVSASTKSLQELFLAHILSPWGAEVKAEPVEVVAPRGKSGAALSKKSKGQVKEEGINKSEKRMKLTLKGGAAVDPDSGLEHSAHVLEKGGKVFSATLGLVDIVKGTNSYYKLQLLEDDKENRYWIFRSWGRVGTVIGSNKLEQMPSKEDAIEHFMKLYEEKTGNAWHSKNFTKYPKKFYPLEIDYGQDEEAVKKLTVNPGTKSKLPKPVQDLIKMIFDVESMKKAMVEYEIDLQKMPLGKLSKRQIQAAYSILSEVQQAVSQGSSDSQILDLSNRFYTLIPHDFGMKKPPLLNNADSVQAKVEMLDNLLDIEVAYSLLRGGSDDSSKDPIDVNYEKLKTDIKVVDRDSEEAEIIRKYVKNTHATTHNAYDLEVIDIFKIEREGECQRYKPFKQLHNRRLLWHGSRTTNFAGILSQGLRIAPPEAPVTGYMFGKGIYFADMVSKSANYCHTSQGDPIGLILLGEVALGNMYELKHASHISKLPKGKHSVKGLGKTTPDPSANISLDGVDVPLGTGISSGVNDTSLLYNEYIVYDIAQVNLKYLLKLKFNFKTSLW
Source text: Measurement of the inhibitory effect of 1-(3-(4-(pyrimidin-2-yl)piperazine-1-carbonyl)benzyl)quinazoline-2,4(1H,3H)-dione and analogs on PARP-1 enzymatic activity
Briefly, PARP-1 catalyzes the NAD-dependent addition of poly(ADP-ribose) to its nuclear protein substrates such as histones. The assay kit measures the incorporation of biotynylated poly(ADP-ribose) onto histone proteins in a 96-well format.

[4] = Homo sapiens, T47D, 24 h, T47D cells, 11.1 μg/ml MMS, 24 hours, intracellular caspase-3 activity
[5] = Homo sapiens, SW-620, 120 h, read-out: IC50 (nM), potentiation of the growth inhibiting activity of MMS, SW620 cells, 1.7 μg/ml MMS, 5 days (120 hours), MTT
[6] = read-out: IC50 (nM), potentiation of the growth inhibiting activity of MMS, SW620 cells, 1.7 μg/ml MMS, 5 days (120 hours), MTT

For `O=C(c1cc(Cc2n[nH]c(=O)c3ccccc23)ccc1F)N1CCN(C(=O)C2CC2)CC1` [AZD2281, olaparib, reference compound], the EC50 ([1]; Homo sapiens, T47D, 24 h) is listed as 24 nM, the “efficacy in treatment of advanced breast cancer” value (advanced breast cancer) is listed as “effective” and the IC50 ([2]; Homo sapiens, SW-620, 120 h, read-out: IC50 (nM), potentiation of the growth inhibiting activity of MMS) is listed as 28 nM.
Work on `O=C(c1cccc(Cn2c(=O)[nH]c(=O)c3ccccc32)c1)N1CCN(c2ccccn2)CC1` [Example 3, 1-(3-(4-(Pyridin-2-yl)piperazine-1-carbonyl)benzyl)quinazoline-2,4(1H,3H)-dione] yielded an EC50 [1, 4] of 56 nM, an IC50 [3] of 445 nM and an IC50 (PARP-1 enzyme) of 4.2 nM. For the same compound, the IC50 [2, 5] was 90 nM.
`O=C(c1cccc(Cn2c(=O)[nH]c(=O)c3ccccc32)c1)N1CCN(c2ncccn2)CC1` [Example 4, 1-(3-(4-(Pyrimidin-2-yl)piperazine-1-carbonyl)benzyl)quinazoline-2,4(1H,3H)-dione] gave an EC50 ([1]; T47D cells, 11.1 μg/ml MMS, 24 hours, intracellular caspase-3 activity) of 12 nM, an IC50 [3] of 55 nM and an IC50 (PARP-1 enzyme) of 0.96 nM. It also gave an IC50 [2, 6] of 12 nM.
`O=C(c1ccccc1)N1CCN(C(=O)c2cccc(Cn3c(=O)[nH]c(=O)c4ccccc43)c2)CC1` [Example 8, 1-(3-(4-Benzoylpiperazine-1-carbonyl)benzyl)quinazoline-2,4(1H,3H)-dione] showed an EC50 [1, 4] of 120 nM, an IC50 [3] of 2360 nM and an IC50 (PARP-1 enzyme) of 5.3 nM. For the same compound, the IC50 [2, 5] was 112 nM.
For `O=C(c1cccc(Cn2c(=O)[nH]c(=O)c3ccccc32)c1)N1CCN(C(=O)C2CCCC2)CC1` [Example 14, 1-(3-(4-(Cyclopentylcarbonyl)piperazine-1-carbonyl)benzyl)quinazoline-2,4(1H,3H)-dione], the EC50 [1, 4] was 39 nM, the IC50 (PARP-1 enzyme) was 2.3 nM and the IC50 [2, 5] was 102 nM.
In the case of `O=C(c1cc(Cn2c(=O)[nH]c(=O)c3ccccc32)ccc1F)N1CCN(c2ncccn2)CC1` [Example 25, 1-(4-Fluoro-3-(4-(pyrimidin-2-yl)piperazine-1-carbonyl)benzyl)quinazoline-2,4(1H,3H)-dione], the EC50 [1, 4] is reported as 3.9 nM, the IC50 [3] is reported as 98 nM and the IC50 (PARP-1 enzyme) is reported as 0.21 nM. It also gave an IC50 [2, 6] of 9.8 nM.
`O=C(c1cc(Cn2c(=O)[nH]c(=O)c3ccccc32)ccc1F)N1CCN(C(=O)C2CCC2)CC1` [Example 44, 1-(3-(4-(Cyclobutylcarbonyl)piperazine-1-carbonyl)-4-fluorobenzyl)quinazoline-2,4(1H,3H)-dione] showed an EC50 [1, 4] of 5.7 nM, an IC50 [3] of 318 nM and an IC50 (PARP-1 enzyme) of 0.88 nM. For the same compound, the IC50 [2, 5] was 6.8 nM.
Work on `O=C(c1cccc(Cn2c(=O)[nH]c(=O)c3c(F)cccc32)c1)N1CCN(c2ncccn2)CC1` [Example 127, 5-Fluoro-1-(3-(4-(pyrimidin-2-yl)piperazine-1-carbonyl)benzyl)quinazoline-2,4(1H,3H)-dione] yielded an EC50 [1, 4] of 4.1 nM, an IC50 [3] of 44 nM and an IC50 (PARP-1 enzyme) of 0.37 nM. The IC50 [2, 5] was 13 nM.
For `O=C(c1cc(Cn2c(=O)[nH]c(=O)c3c(F)cccc32)ccc1F)N1CCN(c2ncccn2)CC1` [Example 132, 5-Fluoro-1-(4-fluoro-3-(4-(pyrimidin-2-yl)piperazine-1-carbonyl)benzyl)quinazoline-2,4(1H,3H)-dione], the EC50 [1, 4] was 0.93 nM, the IC50 [3] was 17 nM and the IC50 (PARP-1 enzyme) was 1.19 nM. It also gave an IC50 [2, 5] of 4.1 nM.
For `O=C(c1cc(Cn2c(=O)[nH]c(=O)c3c(F)cccc32)ccc1F)N1CCN(c2ccccn2)CC1` [Example 135, 5-Fluoro-1-(4-fluoro-3-(4-(pyridin-2-yl)piperazine-1-carbonyl)benzyl)quinazoline-2,4(1H,3H)-dione], the EC50 [1, 4] was 9.8 nM, the IC50 (PARP-1 enzyme) was 1.74 nM and the IC50 [2, 5] was 6.8 nM.
Work on `O=C(c1cccc(Cn2c(=O)[nH]c(=O)c3cc(F)ccc32)c1)N1CCN(c2ncccn2)CC1` [Example 139, 6-Fluoro-1-(3-(4-(pyrimidin-2-yl)piperazine-1-carbonyl)benzyl)quinazoline-2,4(1H,3H)-dione] yielded an EC50 [1, 4] of 4 nM, an IC50 [3] of 36 nM and an IC50 (PARP-1 enzyme) of 1.3 nM. It also gave an IC50 [2, 5] of 16 nM.
In the case of `O=C(c1cc(Cn2c(=O)[nH]c(=O)c3cc(F)ccc32)ccc1F)N1CCN(c2ncccn2)CC1` [Example 144, 6-Fluoro-1-(4-fluoro-3-(4-(pyrimidin-2-yl)piperazine-1-carbonyl)benzyl)quinazoline-2,4(1H,3H)-dione], the EC50 [1, 4] is reported as 3.4 nM, the IC50 [3] is reported as 78 nM and the IC50 (PARP-1 enzyme) is reported as 1.15 nM. For the same compound, the IC50 [2, 5] was 2.8 nM.
`O=C(c1cc(Cn2c(=O)[nH]c(=O)c3cc(F)ccc32)ccc1F)N1CCN(C(=O)C2CCCCC2)CC1` [Example 147, 1-(3-(4-(Cyclohexylcarbonyl)piperazine-1-carbonyl)-4-fluorobenzyl)-6-fluoroquinazoline-2,4(1H,3H)-dione] gave an EC50 [1, 4] of 3.4 nM, an IC50 [3] of 47 nM and an IC50 (PARP-1 enzyme) of 1.2 nM. It also gave an IC50 [2, 5] of 2.7 nM.
For `O=C(c1cc(Cn2c(=O)[nH]c(=O)c3c(F)cccc32)ccc1F)N1CCN(c2nccs2)CC1` [Example 189, 5-Fluoro-1-(4-fluoro-3-(4-(thiazol-2-yl)piperazine-1-carbonyl)benzyl)quinazoline-2,4(1H,3H)-dione], the IC50 [3] was 736 nM, the IC50 (PARP-1 enzyme) was 2.2 nM and the IC50 [2, 5] was 10 nM.
